Assay results from the Kinase Knowledgebase extract (Sharma et al. 2016).
Where “and” joins values, the source holds several entries; their conditions need not be identical. Equal entries are not always repeated.

Molecular target: PIK3CB (UniProt P42338)
Test: Inhibition of PIK3CB Kinase Activity
Settings: not given

PIK3CB, sequence (P42338 whole entry, looked up): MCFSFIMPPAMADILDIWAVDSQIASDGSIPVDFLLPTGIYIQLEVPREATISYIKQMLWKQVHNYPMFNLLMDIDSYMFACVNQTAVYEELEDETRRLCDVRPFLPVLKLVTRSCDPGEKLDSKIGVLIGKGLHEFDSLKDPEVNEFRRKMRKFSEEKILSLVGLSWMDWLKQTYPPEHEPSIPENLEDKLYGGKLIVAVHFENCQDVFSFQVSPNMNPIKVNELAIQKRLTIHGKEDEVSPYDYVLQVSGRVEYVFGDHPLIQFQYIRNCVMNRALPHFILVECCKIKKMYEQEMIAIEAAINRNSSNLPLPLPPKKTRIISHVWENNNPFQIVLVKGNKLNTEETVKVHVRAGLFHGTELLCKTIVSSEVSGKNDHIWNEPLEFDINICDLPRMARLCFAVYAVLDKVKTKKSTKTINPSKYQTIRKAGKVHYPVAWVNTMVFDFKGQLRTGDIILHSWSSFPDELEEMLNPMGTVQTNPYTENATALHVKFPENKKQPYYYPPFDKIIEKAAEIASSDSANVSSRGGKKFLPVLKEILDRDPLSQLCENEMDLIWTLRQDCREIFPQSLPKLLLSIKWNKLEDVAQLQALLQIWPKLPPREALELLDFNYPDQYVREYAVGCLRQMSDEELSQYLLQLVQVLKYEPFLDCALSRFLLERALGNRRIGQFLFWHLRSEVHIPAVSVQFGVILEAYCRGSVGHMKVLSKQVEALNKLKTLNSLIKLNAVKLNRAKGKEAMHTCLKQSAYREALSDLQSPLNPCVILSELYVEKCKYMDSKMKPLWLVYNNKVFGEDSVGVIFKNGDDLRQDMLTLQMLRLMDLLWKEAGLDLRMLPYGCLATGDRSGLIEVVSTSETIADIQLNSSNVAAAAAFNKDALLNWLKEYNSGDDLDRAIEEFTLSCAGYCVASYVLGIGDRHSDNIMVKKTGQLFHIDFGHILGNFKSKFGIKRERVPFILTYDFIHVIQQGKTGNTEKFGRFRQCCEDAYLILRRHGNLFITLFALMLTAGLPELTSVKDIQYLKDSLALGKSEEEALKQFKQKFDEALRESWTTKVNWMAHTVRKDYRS

In order of rising IC50:
1. Nc1ncnc2c1ncn2Cc1nc2cccc(F)c2c(=O)n1Cc1ccccc1  30 µM
2. CCCCn1c(Cn2cnc3c(N)ncnc32)nc2ccccc2c1=O  41 µM
3. O=c1c2cccc(Cl)c2nc(CSc2ncnc3[nH]cnc23)n1-c1ccccc1Cl  110 µM

`COc1ccccc1-n1c(CSc2ncnc3[nH]cnc23)nc2cccc(C)c2c1=O` was tested, and the IC50 was 30 µM and 9 µM.
In the case of `O=c1c2cc(F)c(F)cc2nc(CSc2ncnc3[nH]cnc23)n1-c1ccccc1Cl`, the IC50 is reported as 110 µM and 58 µM.
With `Nc1ncnc2c1ncn2Cc1nc2cccc(Cl)c2c(=O)n1-c1ccccc1-c1ccccc1` the IC50 was 6 µM and 18 µM.

Same assay, conditions: concentration not given here

In order of falling inhibition:
1. Nc1ncnc2c1ncn2Cc1nc2cc(F)ccc2c(=O)n1-c1ccccc1Cl  47%
2. Nc1ncnc2c1ncn2Cc1nc2ccccc2c(=O)n1N1CCOCC1  43%
3. O=c1c2ccccc2nc(CSc2ncnc3[nH]cnc23)n1Cc1ccccc1  42%
4. COc1cccc(-n2c(CSc3ncnc4[nH]cnc34)nc3ccccc3c2=O)c1  36%
5. O=c1c2ccccc2nc(CSc2ncnc3[nH]cnc23)n1-c1cccc(Cl)c1  35%
6. O=c1c2cc(Cl)ccc2nc(CSc2ncnc3[nH]cnc23)n1-c1ccccc1Cl  31%
7. O=c1c2ccccc2nc(CSc2ncnc3[nH]cnc23)n1-c1ccc(Cl)cc1  31%
8. O=c1c2ccccc2nc(CSc2ncnc3[nH]ncc23)n1-c1ccccc1Cl  29%
9. COc1ccccc1Cn1c(CSc2ncnc3[nH]cnc23)nc2ccccc2c1=O  27%
10. O=c1c2c(Cl)cccc2nc(CSc2ncnc3[nH]cnc23)n1-c1ccccc1-c1ccccc1  27%
11. CCOC(=O)Cn1c(CSc2ncnc3[nH]cnc23)nc2cccc(F)c2c1=O  26%
12. O=c1c2cc(O)ccc2nc(CSc2ncnc3[nH]cnc23)n1-c1ccccc1Cl  24%
13. O=c1c2c(F)cccc2nc(CSc2ncnc3[nH]cnc23)n1Cc1ccccc1  23%
14. Nc1ncnc2c1ncn2Cc1nc2ccc(Br)cc2c(=O)n1-c1ccccc1Cl  22%
15. O=c1c2cc(F)ccc2nc(CSc2ncnc3[nH]cnc23)n1-c1ccccc1Cl  19%
16. COc1cc2nc(CSc3ncnc4[nH]cnc34)n(-c3ccccc3Cl)c(=O)c2cc1OC  19%
17. Nc1ncnc2c1ncn2Cc1nc2cccc(F)c2c(=O)n1-c1ccccc1Cl  18%
18. Nc1ncnc2c1ncn2Cc1nc2ccc(Cl)cc2c(=O)n1-c1ccccc1Cl  11%
19. O=c1c2ccc([N+](=O)[O-])cc2nc(CSc2ncnc3[nH]cnc23)n1-c1ccccc1Cl  9%
20. O=c1c2cccc(C(F)(F)F)c2nc(CSc2ncnc3[nH]cnc23)n1-c1ccccc1Cl  7%
21. O=c1c2ccc(F)cc2nc(CSc2ncnc3[nH]cnc23)n1-c1ccccc1Cl  -1%
22. O=c1c2cc(Br)ccc2nc(CSc2ncnc3[nH]cnc23)n1-c1ccccc1Cl  -8%

Molecular target: PIK3CD (UniProt O00329)
Sequence (O00329 whole entry, looked up): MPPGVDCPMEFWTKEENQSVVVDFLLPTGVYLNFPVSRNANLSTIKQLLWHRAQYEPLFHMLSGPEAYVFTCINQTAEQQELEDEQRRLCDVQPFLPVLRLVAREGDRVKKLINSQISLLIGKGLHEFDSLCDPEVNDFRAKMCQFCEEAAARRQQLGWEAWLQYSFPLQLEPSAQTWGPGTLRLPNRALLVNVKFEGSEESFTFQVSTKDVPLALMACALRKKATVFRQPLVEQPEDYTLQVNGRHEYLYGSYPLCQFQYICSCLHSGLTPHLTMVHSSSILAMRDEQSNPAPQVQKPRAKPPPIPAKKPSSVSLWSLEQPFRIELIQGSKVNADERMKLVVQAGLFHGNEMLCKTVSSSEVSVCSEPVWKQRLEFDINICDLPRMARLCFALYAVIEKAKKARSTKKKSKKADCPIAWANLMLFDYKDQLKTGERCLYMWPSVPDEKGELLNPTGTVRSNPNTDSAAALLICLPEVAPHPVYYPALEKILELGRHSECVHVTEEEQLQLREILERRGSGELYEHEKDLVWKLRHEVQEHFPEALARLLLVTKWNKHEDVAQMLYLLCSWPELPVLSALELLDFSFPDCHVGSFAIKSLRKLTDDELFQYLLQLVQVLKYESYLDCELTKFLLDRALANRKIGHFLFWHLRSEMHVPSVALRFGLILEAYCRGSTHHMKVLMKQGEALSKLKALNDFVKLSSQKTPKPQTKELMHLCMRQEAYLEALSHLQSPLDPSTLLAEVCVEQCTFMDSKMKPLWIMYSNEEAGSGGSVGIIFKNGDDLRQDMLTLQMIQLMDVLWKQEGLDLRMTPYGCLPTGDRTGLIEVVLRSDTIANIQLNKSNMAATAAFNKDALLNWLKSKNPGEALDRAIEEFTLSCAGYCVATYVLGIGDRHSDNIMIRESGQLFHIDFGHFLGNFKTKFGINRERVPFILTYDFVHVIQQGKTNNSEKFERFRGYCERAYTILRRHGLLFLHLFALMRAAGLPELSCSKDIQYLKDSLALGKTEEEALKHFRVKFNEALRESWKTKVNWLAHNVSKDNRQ
Test: Inhibition of PIK3CD Kinase Activity
Settings: not given

With `O=c1c2cccc(C(F)(F)F)c2nc(CSc2ncnc3[nH]cnc23)n1-c1ccccc1Cl` the IC50 was 4.2 µM.

Molecular target: PIK3CG (UniProt P48736)
Sequence (P48736 whole entry, looked up): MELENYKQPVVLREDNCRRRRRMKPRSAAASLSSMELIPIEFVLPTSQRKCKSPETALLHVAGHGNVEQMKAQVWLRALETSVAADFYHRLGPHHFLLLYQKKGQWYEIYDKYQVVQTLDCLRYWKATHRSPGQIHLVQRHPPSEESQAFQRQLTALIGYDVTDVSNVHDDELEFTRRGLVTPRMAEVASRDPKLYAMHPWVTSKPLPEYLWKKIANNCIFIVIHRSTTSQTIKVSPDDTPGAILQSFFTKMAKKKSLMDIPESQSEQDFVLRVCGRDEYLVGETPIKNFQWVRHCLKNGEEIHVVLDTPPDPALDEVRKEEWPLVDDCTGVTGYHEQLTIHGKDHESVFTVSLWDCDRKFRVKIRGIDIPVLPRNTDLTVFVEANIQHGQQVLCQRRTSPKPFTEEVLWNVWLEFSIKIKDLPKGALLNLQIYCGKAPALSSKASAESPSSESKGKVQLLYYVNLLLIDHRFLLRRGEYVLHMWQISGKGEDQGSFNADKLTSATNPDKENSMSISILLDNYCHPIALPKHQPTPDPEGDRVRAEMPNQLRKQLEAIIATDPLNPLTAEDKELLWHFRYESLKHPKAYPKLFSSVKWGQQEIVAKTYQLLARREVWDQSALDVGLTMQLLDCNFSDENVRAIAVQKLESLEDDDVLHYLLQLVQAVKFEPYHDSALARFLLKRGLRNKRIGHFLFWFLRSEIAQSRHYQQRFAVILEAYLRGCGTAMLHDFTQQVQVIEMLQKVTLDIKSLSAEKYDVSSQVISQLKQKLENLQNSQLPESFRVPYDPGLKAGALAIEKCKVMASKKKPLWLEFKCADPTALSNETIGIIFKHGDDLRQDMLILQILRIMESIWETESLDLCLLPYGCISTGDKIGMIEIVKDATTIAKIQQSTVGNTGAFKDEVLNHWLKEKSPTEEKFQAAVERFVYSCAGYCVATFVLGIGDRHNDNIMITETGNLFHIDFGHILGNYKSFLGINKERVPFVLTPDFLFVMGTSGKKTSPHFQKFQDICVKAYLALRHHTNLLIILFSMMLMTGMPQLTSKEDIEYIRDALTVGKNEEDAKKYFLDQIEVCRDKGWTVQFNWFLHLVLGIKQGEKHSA
Test: Inhibition of PIK3CG Kinase Activity
Settings: not given

In order of falling IC50:
1. COc1cccc(Cn2c(CSc3ncnc4[nH]cnc34)nc3ccccc3c2=O)c1  72 µM
2. Nc1ncnc2c1ncn2Cc1nc2cccc(Cl)c2c(=O)n1-c1ccccc1F  50 µM

Same assay, conditions: concentration not given here

In order of rising inhibition:
1. Nc1ncnc2c1ncn2Cc1nc2cccc(F)c2c(=O)n1-c1ccccc1Cl  9%
2. O=c1c2ccccc2nc(CSc2ncnc3[nH]cnc23)n1-c1ccccc1  39%
3. O=c1c2ccc(F)cc2nc(CSc2ncnc3[nH]cnc23)n1-c1ccccc1Cl  40%
4. O=c1c2ccccc2nc(CSc2ncnc3[nH]cnc23)n1N1CCOCC1  57%
5. O=c1c2c(F)cccc2nc(CSc2ncnc3[nH]cnc23)n1-c1ccccc1Cl  83%

Molecular target: PIK3CD (Human) (UniProt O00329)
Sequence (O00329 whole entry, looked up): as the sequence (O00329 whole entry, looked up) above
Test: Assessment of Stimulus Induced TCE Cell Proliferation
Settings: t cells

In order of rising EC50:
1. O=c1c2cc3ccccc3cc2nc(CSc2ncnc3[nH]cnc23)n1-c1ccccc1Cl  0.9 µM
2. O=c1c2c(F)cccc2nc(CSc2ncnc3[nH]cnc23)n1-c1ccccc1Cl  1.8 µM
3. O=c1c2ccc(F)cc2nc(CSc2ncnc3[nH]cnc23)n1-c1ccccc1Cl  2.3 µM
4. O=c1c2c(F)cccc2nc(CSc2ncnc3[nH]cnc23)n1Cc1ccccc1  2.6 µM
5. CCCCn1c(CSc2ncnc3[nH]cnc23)nc2ccccc2c1=O  2.9 µM
6. Cc1cccc2nc(CSc3ncnc4[nH]cnc34)n(-c3ccccc3C(C)C)c(=O)c12  2.9 µM
7. Cc1cccc2nc(Cn3cnc4c(N)ncnc43)n(-c3ccccc3C(C)C)c(=O)c12  3.4 µM
8. Cc1cccc2nc(CSc3ncnc4[nH]cnc34)n(-c3ccccc3Cl)c(=O)c12  3.5 µM
9. O=c1c2cccc(Cl)c2nc(CSc2ncnc3[nH]cnc23)n1-c1ccccc1Cl  3.5 µM
10. Nc1ncnc2c1ncn2Cc1nc2cccc(F)c2c(=O)n1-c1ccccc1Cl  3.9 µM
11. COc1ccccc1Cn1c(CSc2ncnc3[nH]cnc23)nc2ccccc2c1=O  4.1 µM
12. Cc1cccc2nc(Cn3cnc4c(N)ncnc43)n(-c3ccccc3Cl)c(=O)c12  4.2 µM
13. O=c1c2c(Cl)cccc2nc(CSc2ncnc3[nH]cnc23)n1-c1ccccc1Cl  4.4 µM
14. Cc1cccc2nc(Cn3cnc4c(N)ncnc43)n(-c3ccccc3F)c(=O)c12  5 µM
15. Nc1ncnc2c1ncn2Cc1nc2cccc(Cl)c2c(=O)n1-c1ccccc1Cl  5.3 µM
16. O=c1c2ccccc2nc(CSc2ncnc3[nH]cnc23)n1-c1ccccc1Cl  5.5 µM
17. Nc1ncnc2c1ncn2Cc1nc2cc(F)ccc2c(=O)n1-c1ccccc1Cl  5.7 µM
18. O=c1c2ccccc2nc(CSc2ncnc3[nH]ncc23)n1-c1ccccc1Cl  5.9 µM
19. Nc1ncnc2c1ncn2Cc1nc2cccc(F)c2c(=O)n1Cc1ccccc1  6.3 µM

Molecular target: PIK3CD (Human) (UniProt O00329)
Test: Evaluation of PIK3CD inhibitors on Elastase Release in Human PMN Cells
Settings: not given

`O=c1c2ccccc2nc(CSc2ncnc3[nH]cnc23)n1N1CCOCC1` and `CCCCn1c(CSc2ncnc3[nH]cnc23)nc2ccccc2c1=O` are the same in EC50: 5 µM for the first, 5 µM for the second.

First: COc1ccccc1Cn1c(CSc2ncnc3[nH]cnc23)nc2ccccc2c1=O
Second: O=c1c2ccccc2nc(CSc2ncnc3[nH]cnc23)n1Cc1ccccc1
The EC50 of the first is 4.2-fold higher: 5.5 µM for the first, 1.3 µM for the second. The second is the more potent here.

`Cc1cccc2nc(Cn3cnc4c(N)ncnc43)n(-c3ccccc3Cl)c(=O)c12` and `Nc1ncnc2c1ncn2Cc1nc2cccc(Cl)c2c(=O)n1-c1ccccc1Cl` are within 1.5-fold of each other in EC50: 0.4 µM for the first, 0.3 µM for the second.

`Cc1ccccc1-n1c(CSc2ncnc3[nH]cnc23)nc2cccc(Cl)c2c1=O` and `Cc1cccc2nc(CSc3ncnc4[nH]cnc34)n(-c3ccccc3Cl)c(=O)c12` are within 1.5-fold of each other in EC50: 0.3 µM for the first, 0.2 µM for the second.

Compared with `Nc1ncnc2c1ncn2Cc1nc2cccc(Cl)c2c(=O)n1-c1ccccc1F`, `Nc1ncnc2c1ncn2Cc1nc2cccc(F)c2c(=O)n1-c1ccccc1Cl` is 14-fold higher in EC50: 0.3 µM for the first, 4.3 µM for the second. The first is the more potent here.

Compared with `Cc1cccc2nc(Cn3cnc4c(N)ncnc43)n(-c3ccccc3F)c(=O)c12`, `Cc1cccc2nc(Cn3cnc4c(N)ncnc43)n(-c3ccccc3C(C)C)c(=O)c12` is 1.8-fold lower in EC50: 0.9 µM for the first, 0.5 µM for the second.

Going from `O=c1c2c(Cl)cccc2nc(CSc2ncnc3[nH]cnc23)n1-c1ccccc1Cl` to `O=c1c2c(F)cccc2nc(CSc2ncnc3[nH]cnc23)n1-c1ccccc1Cl`, the EC50 rises from 0.3 µM to 1.3 µM (4.3-fold). The first is the more potent here.

First: Cc1cccc2nc(CSc3ncnc4[nH]cnc34)n(-c3ccccc3C(C)C)c(=O)c12
Second: Cc1cccc2nc(CSc3ncnc4[nH]cnc34)n(-c3ccccc3F)c(=O)c12
The EC50 of the first is 2.3-fold lower: 0.3 µM for the first, 0.7 µM for the second.

Compared with `O=c1c2cc(F)ccc2nc(CSc2ncnc3[nH]cnc23)n1-c1ccccc1Cl`, `O=c1c2cc(O)ccc2nc(CSc2ncnc3[nH]cnc23)n1-c1ccccc1Cl` is 2.9-fold higher in EC50: 1 µM for the first, 2.9 µM for the second. The first is the more potent here.

Compared with `CCOC(=O)Cn1c(CSc2ncnc3[nH]cnc23)nc2cccc(F)c2c1=O`, `O=c1c2c(Cl)cccc2nc(CSc2ncnc3[nH]cnc23)n1-c1ccccc1F` is 10-fold lower in EC50: 9 µM for the first, 0.9 µM for the second. The second is the more potent here.

Compared with `O=c1c2ccccc2nc(CSc2ncnc3[nH]cnc23)n1-c1ccccc1Cl`, `O=c1c2ccccc2nc(CSc2ncnc3[nH]ncc23)n1-c1ccccc1Cl` is higher in EC50: 2.2 µM for the first, > 20 µM for the second. The first is the more potent here.

First: COc1ccccc1-n1c(CSc2ncnc3[nH]cnc23)nc2cccc(C)c2c1=O
Second: O=c1c2cc(F)c(F)cc2nc(CSc2ncnc3[nH]cnc23)n1-c1ccccc1Cl
The EC50 of the first is 4-fold lower: 0.5 µM for the first, 2 µM for the second. The first is the more potent here.

First: Nc1ncnc2c1ncn2Cc1nc2cccc(F)c2c(=O)n1Cc1ccccc1
Second: Nc1ncnc2c1ncn2Cc1nc2cccc(Cl)c2c(=O)n1-c1ccccc1-c1ccccc1
The EC50 of the first is 2.1-fold lower: 5 µM for the first, 10.5 µM for the second. The first is the more potent here.

Molecular target: PIK3CD (Human) (UniProt O00329)
Test: Evaluation of PIK3CD inhibitors on Neutrophil Migration
Settings: pmn

First: COc1ccccc1Cn1c(CSc2ncnc3[nH]cnc23)nc2ccccc2c1=O
Second: O=c1c2ccccc2nc(CSc2ncnc3[nH]cnc23)n1Cc1ccccc1
The EC50 of the first is 10-fold lower: 0.2 µM for the first, 2 µM for the second. The first is the more potent here.

`Cc1cccc2nc(Cn3cnc4c(N)ncnc43)n(-c3ccccc3C(C)C)c(=O)c12` and `Cc1cccc2nc(CSc3ncnc4[nH]cnc34)n(-c3ccccc3Cl)c(=O)c12` are the same in EC50: 0.3 µM for the first, 0.3 µM for the second.

Going from `O=c1c2c(Cl)cccc2nc(CSc2ncnc3[nH]cnc23)n1-c1ccccc1Cl` to `O=c1c2c(F)cccc2nc(CSc2ncnc3[nH]cnc23)n1-c1ccccc1Cl`, the EC50 rises from 0.3 µM to 2 µM (6.7-fold).

`O=c1c2ccccc2nc(CSc2ncnc3[nH]cnc23)n1-c1ccccc1Cl` and `O=c1c2ccccc2nc(CSc2ncnc3[nH]ncc23)n1-c1ccccc1Cl` cannot be ordered by EC50: 1 to 5 µM for the first, 1 µM for the second.

Molecular target: PIK3CD (Human) (UniProt O00329)
Test: Assessment of Cell Proliferation in KU812 Cells
Settings: not given

Compound `O=c1c2ccccc2nc(CSc2ncnc3[nH]cnc23)n1-c1ccccc1Cl` has an EC50 of 2 µM.

Molecular target: PIK3CD (Human) (UniProt O00329)
Test: Assessment of RWLeu4 Cell Proliferation
Settings: not given

`O=c1c2ccccc2nc(CSc2ncnc3[nH]cnc23)n1-c1ccccc1Cl` gave an EC50 of 2 µM.

Tested on: PIK3CD (mouse)
Test: Evaluation of PIK3CD inhibitors on Osteoclast Function
Settings: bone marrow, dose or concentration not given here

`O=c1c2ccccc2nc(CSc2ncnc3[nH]cnc23)n1-c1ccccc1Cl` gave an inhibition of 99%.

Molecular target: PIK3CD (Human) (UniProt O00329)
Test: Evaluation of PIK3CD inhibitors on Basophil Function by Histamine Release Assay
Settings: basophils

Compound `Cc1cccc2nc(CSc3ncnc4[nH]cnc34)n(-c3ccccc3Cl)c(=O)c12` has an EC50 of 0.025 µM.

Same assay, conditions: basophils, concentration not given here

With `O=c1cc(N2CCOCC2)oc2c(-c3ccccc3)cccc12` the inhibition was 100%.
